Results published in US11554115B2, “Quinoline derivative for treatment of triple-negative breast cancer” (CHIA TAI TIANQING PHARMACEUTICAL GROUP CO., LTD., priority 2018, dated 2023).
Structures can show the parent of a compound that is named as a salt.

Tested on: advanced or metastatic triple-negative breast cancer (ER-negative, PR-negative, HER2-negative)
Experiment: Clinical trial in patients with advanced or metastatic triple-negative breast cancer
Assay type: in vivo, human
Settings: patients aged ≥18 years; capsules alone or in combination with chemotherapy; 12 mg once daily, two-week treatment, one-week rest

COc1cc2c(Oc3ccc4[nH]c(C)cc4c3F)ccnc2cc1OCC1(N)CC1 [1-[[[4-(4-fluoro-2-methyl-1H-indol-5-yl)oxy-6-methoxyquinolin-7-yl]oxy]methyl]cyclopropylamine dihydrochloride]
efficacy for the treatment of triple-negative breast cancer: effective
